The values below come from patent US20260199364A1, “USE OF A SYK INHIBITOR FOR THE TREATMENT OF SICKLE CELL DISEASE” (Rigel Pharmaceuticals, Inc., priority 2023, published 2026).

Series [1] in a line: water solubility in aqueous buffer under physiological conditions. Particulars: for solubility: aqueous buffer.
Series [2] can be described thus: oral bioavailability of phosphate prodrug versus active drug. Format: in vivo. To be noted: prodrug with progroup —CH2—O—P(O)(OH)2 compared with Compound 1.

The structures appear in SMILES notation. ≈ marks a conversion by molar mass, not a printed value.

For orientation: solubility means how much of the substance goes into solution per volume. Read a high solubility as much dissolved substance.

`COc1cc(Nc2ncc(F)c(Nc3ccc4c(n3)NC(=O)C(C)(C)O4)n2)cc(OC)c1OC` [Compound 1, N4-(2,2-Dimethyl-3-oxo-4H-5-pyrid[1,4]oxazin-6-yl)-5-fluoro-N2-(3,4,5-trimethoxyphenyl)-2,4-pyrimidinediamine] showed a solubility in series [1] of 1 to 2 µg/mL (≈ 2.13 to 4.25 µM).

For `COc1cc(Nc2ncc(F)c(Nc3ccc4c(n3)N(COP(=O)(O)O)C(=O)C(C)(C)O4)n2)cc(OC)c1OC` [Compound 4], in series [2], the oral bioavailability entry is listed as “increased dramatically”. Besides, the solubility in series [1] is greater than 5000 µg/mL. In addition, in series [1] (aqueous buffer under physiological conditions, prodrug vs Compound 1), the “solubility relative to active drug (Compound 1)” value is “approximately 2000 times greater”.
